Measurements published in patent US20240101544A1, “INHIBITORS OF QPCTL AND QPCT” (priority 2022, published 2024).

How the values were obtained:
QPCTL [1] = target: T1, QPCTL (Homo sapiens (Human), UniProt Q9NXS2); assay: QPCTL Enzymatic Activity Assay (coupled-enzyme fluorescent assay, H-Gln-AMC substrate); format: biochemical; details: recombinant truncated human QPCTL 10-12 nM, 10 μM H-Gln-AMC; read-out: QPCTL Inhibition IC50
Protocol: Protein expression was induced when the bacterial culture OD600 was approximately 0.7 using 1 mM IPTG and the cells incubated at 20° C. for approximately 16 hours. The QPCTL was purified using nickel column purification, digested by TEV, followed by a second nickel column purification. The protein was further purified by size-exclusion chromatography using a Superdex™ 75 column. The final protein was concentrated using ultrafiltration tubes at a molecular weight cutoff of 10 kilodaltons and stored frozen in protein buffer (25 mM Tris pH 8.3, 150 mM NaCl).
QPCTL activity was measured in a coupled-enzyme assay using the QPCTL substrate, glutamine-7-amido-4-methylcoumarin (H-Gln-AMC, Bachem), which is converted to pyroglutamyl-AMC by QPCTL. Pyroglutamyl-AMC is then converted to the fluorescent molecule, AMC, by incubation with the human enzyme pyroglutamyl peptidase-1. […] Final concentrations of DMSO and test compounds were 2% and 30-100 μM, respectively. Following the incubation, H-Gln-AMC substrate was diluted in assay buffer and added to each well for a final concentration of 10 μM. The reaction was incubated for 60 min at 37° C., before stopping it by boiling at 100° C. for 5 minutes and cooling the plate at 4° C. for 3 minutes. […] Following incubation, the fluorescence was measured with a plate reader using excitation at 380 nm and emission at 460 nm. […] Concentration-response-curves and IC50 values (Table 17) were generated using curve fit software.
Target sequence in this assay (Q9NXS2 53-382): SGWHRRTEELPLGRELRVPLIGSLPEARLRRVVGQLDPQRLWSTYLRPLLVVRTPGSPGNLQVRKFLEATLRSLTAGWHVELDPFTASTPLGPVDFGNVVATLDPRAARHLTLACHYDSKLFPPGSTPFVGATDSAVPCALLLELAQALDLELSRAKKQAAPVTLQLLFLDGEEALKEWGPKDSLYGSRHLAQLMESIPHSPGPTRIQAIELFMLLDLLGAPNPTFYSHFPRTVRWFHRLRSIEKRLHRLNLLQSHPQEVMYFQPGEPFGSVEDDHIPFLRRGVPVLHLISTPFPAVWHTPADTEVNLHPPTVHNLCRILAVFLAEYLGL

QPCT (rhQPCT) = QPCT (rhQPCT) (Homo sapiens (Human), UniProt Q16769); assay: QPCT Enzymatic Activity Assay (coupled-enzyme fluorescent assay, H-Gln-AMC substrate); format: biochemical; details: rhQPCT 10-12 nM, 10 μM H-Gln-AMC; read-out: QPCT Inhibition IC50
Chain of QPCT (rhQPCT) (Q16769 29-361): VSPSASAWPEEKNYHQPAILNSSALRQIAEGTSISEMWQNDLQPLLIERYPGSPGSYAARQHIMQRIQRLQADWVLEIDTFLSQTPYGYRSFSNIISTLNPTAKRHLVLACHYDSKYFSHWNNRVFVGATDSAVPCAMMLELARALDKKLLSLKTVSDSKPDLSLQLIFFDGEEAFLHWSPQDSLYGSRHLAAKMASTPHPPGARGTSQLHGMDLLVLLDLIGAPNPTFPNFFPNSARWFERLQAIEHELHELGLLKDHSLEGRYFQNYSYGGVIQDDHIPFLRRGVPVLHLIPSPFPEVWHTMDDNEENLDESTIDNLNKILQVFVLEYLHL
Protocol: QPCT activity was measured in a coupled-enzyme assay using the QPCT substrate, glutamine-7-amido-4-methylcoumarin (H-Gln-AMC, Bachem), which is converted to pyroglutamyl-AMC by QPCT. Pyroglutamyl-AMC is then converted to the fluorescent molecule, AMC, by incubation with the human enzyme pyroglutamyl peptidase-1 (PGPEP-1). […] Following the incubation, H-Gln-AMC substrate was diluted in assay buffer and added to each well for a final concentration of 10 μM. The reaction was incubated for 60 min at 37° C., before stopping it by boiling at 100° C. for 5 minutes and cooling the plate at 4° C. for 3 minutes. […] Following incubation, the fluorescence was measured with a plate reader using excitation at 380 nm and emission at 460 nm. […] Concentration-response-curves and IC50 values (Table 17) were generated using Collaborative Drug Discovery software.

QPCTL [2] = target: T1, QPCTL; assay: Inhibition of Cellular QPCTL Activity - Imaging Assay, CC2C6 anti-CD47 staining of DLD-1 cells; format: cell-based; details: 72 hours, CC2C6 anti-CD47 high-content imaging
Protocol: Inhibition of Cellular QPCTL Activity—Imaging Assay
The cells were incubated for 72 hours at 37° C. and 5% CO2. […] After primary antibody staining, the cells were fixed with 4% paraformaldehyde in the incubation buffer for 15 minutes at room temperature. […] Cells were analyzed on a ImageXpress Pico Automated Cell Imaging System (Molecular Devices) using 10× objective (3×3 fields).
Target sequence in this assay (Q9NXS2 whole entry, the tested form may be a part): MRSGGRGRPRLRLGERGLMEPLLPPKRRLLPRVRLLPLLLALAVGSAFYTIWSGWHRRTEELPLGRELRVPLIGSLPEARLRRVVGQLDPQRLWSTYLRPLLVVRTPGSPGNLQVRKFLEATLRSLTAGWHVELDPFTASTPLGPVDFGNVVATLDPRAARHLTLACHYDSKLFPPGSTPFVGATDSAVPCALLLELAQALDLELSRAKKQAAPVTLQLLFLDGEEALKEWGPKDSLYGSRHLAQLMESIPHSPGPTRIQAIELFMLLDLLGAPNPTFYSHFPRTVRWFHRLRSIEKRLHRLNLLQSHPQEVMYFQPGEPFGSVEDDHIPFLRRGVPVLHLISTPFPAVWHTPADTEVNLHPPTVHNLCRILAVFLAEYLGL

Row | IC50 (QPCTL [1]) [nM] | IC50 (QPCT (rhQPCT)) [nM] | IC50 (QPCTL [2]) [nM] | Structure (SMILES)
1 | < 100 | < 100 | < 100 | Cc1cc(C#N)c(N2CCC(c3nncn3C)CC2)c(-c2ccc(F)nc2)c1 [Example 66, 3-(6-fluoropyridin-3-yl)-5-methyl-2-(4-(4-methyl-4H-1,2,4-triazol-3-yl)piperidin-1-yl)benzonitrile]
2 | < 100 | < 100 | < 100 | Cn1cnnc1C1CCN(c2c(C#N)cc(Cl)cc2-c2ccc(F)nc2)CC1 [Example 69, 5-chloro-3-(6-fluoropyridin-3-yl)-2-(4-(4-methyl-4H-1,2,4-triazol-3-yl)piperidin-1-yl)benzonitrile]
3 | < 100 | < 100 | < 100 | COCCOc1ccc(-c2ccc(F)nc2)c(N2CCC(c3nncn3C)CC2)c1C#N [Example 86, 3-(6-fluoropyridin-3-yl)-6-(2-methoxyethoxy)-2-(4-(4-methyl-4H-1,2,4-triazol-3-yl)piperidin-1-yl)benzonitrile]
4 | < 100 | < 100 | < 100 | CC(=O)c1ccc(-c2ccc(F)nc2)c(N2CCC(c3nncn3C)CC2)c1C#N [Example 97, 6-acetyl-3-(6-fluoropyridin-3-yl)-2-(4-(4-methyl-4H-1,2,4-triazol-3-yl)piperidin-1-yl)benzonitrile]
5 | < 100 | < 100 | < 100 | Cn1cnnc1C1CCN(c2c(-c3ccc(F)nc3)ccc(-c3cc[nH]n3)c2C#N)CC1 [Example 45, 3-(6-fluoropyridin-3-yl)-2-(4-(4-methyl-4H-1,2,4-triazol-3-yl)piperidin-1-yl)-6-(1H-pyrazol-3-yl)benzonitrile]
6 | < 100 | < 100 | 100 to 1000 | Cn1cnnc1C1CCN(c2c(C#N)cccc2-c2cncc(Cl)c2)CC1 [Example 115, 3-(5-chloropyridin-3-yl)-2-(4-(4-methyl-4H-1,2,4-triazol-3-yl)piperidin-1-yl)benzonitrile]
7 | < 100 | < 100 | < 100 | Cn1cnnc1C1CCN(c2c(-c3ccc(F)nc3)ccc(C3COC3)c2C#N)CC1 [Example 108, 3-(6-fluoropyridin-3-yl)-2-(4-(4-methyl-4H-1,2,4-triazol-3-yl)piperidin-1-yl)-6-(oxetan-3-yl)benzonitrile]
8 | < 100 | < 100 | 1000 to 10000 | COc1ccc(-c2cnc3nccn3c2)c(N2CCC(c3nncn3C)CC2)c1C#N [Example 94, 3-(imidazo[1,2-a]pyrimidin-6-yl)-6-methoxy-2-(4-(4-methyl-4H-1,2,4-triazol-3-yl)piperidin-1-yl)benzonitrile]
9 | < 100 | < 100 | < 100 | Cn1cnnc1C1CCN(c2c(-c3ccc(F)nc3)ccc(OCC3CC3)c2C#N)CC1 [Example 77, 6-(cyclopropylmethoxy)-3-(6-fluoropyridin-3-yl)-2-(4-(4-methyl-4H-1,2,4-triazol-3-yl)piperidin-1-yl)benzonitrile]
10 | < 100 | < 100 | < 100 | Cn1cnnc1C1CCN(c2c(-c3ccc(F)nc3)ccc(-c3cnn(C4CC4)c3)c2C#N)CC1 [Example 63, 6-(1-cyclopropyl-1H-pyrazol-4-yl)-3-(6-fluoropyridin-3-yl)-2-(4-(4-methyl-4H-1,2,4-triazol-3-yl)piperidin-1-yl)benzonitrile]
11 | < 100 | < 100 | < 100 | Cn1cnnc1C1CCN(c2c(C#N)cc(C#N)cc2-c2ccc(F)nc2)CC1 [Example 100, 5-(6-fluoropyridin-3-yl)-4-(4-(4-methyl-4H-1,2,4-triazol-3-yl)piperidin-1-yl)isophthalonitrile]
12 | < 100 | < 100 | < 100 | Cn1cnnc1C1CCN(c2c(-c3ccc(F)nc3)ccc(OC3CCOC3)c2C#N)CC1 (single isomer, unassigned) [Example 88, 3-(6-fluoropyridin-3-yl)-2-(4-(4-methyl-4H-1,2,4-triazol-3-yl)piperidin-1-yl)-6-((tetrahydrofuran-3-yl)oxy)benzonitrile]
13 | < 100 | < 100 | < 100 | Cn1cnnc1C1CCN(c2c(C#N)cccc2-c2cncc(B(O)O)c2)CC1 [Example 117, (5-(3-cyano-2-(4-(4-methyl-4H-1,2,4-triazol-3-yl)piperidin-1-yl)phenyl)pyridin-3-yl)boronic acid]
14 | < 100 | < 100 | 100 to 1000 | Cc1cc(-c2cccc(C#N)c2N2CCC(c3nncn3C)CC2)cnn1 [Example 46, 2-(4-(4-methyl-4H-1,2,4-triazol-3-yl)piperidin-1-yl)-3-(6-methylpyridazin-4-yl)benzonitrile]
15 | < 100 | < 100 | 100 to 1000 | CN1CCC(Oc2ccc(-c3ccc(F)nc3)c(N3CCC(c4nncn4C)CC3)c2C#N)C1 (single isomer, unassigned) [Example 91, 3-(6-fluoropyridin-3-yl)-2-(4-(4-methyl-4H-1,2,4-triazol-3-yl)piperidin-1-yl)-6-((1-methylpyrrolidin-3-yl)oxy)benzonitrile]
16 | < 100 | < 100 | 1000 to 10000 | Cn1cnnc1C1CCN(c2c(-c3ccc(F)nc3)ccc(N3CCNCC3)c2C#N)CC1 [Example 85, 3-(6-fluoropyridin-3-yl)-2-(4-(4-methyl-4H-1,2,4-triazol-3-yl)piperidin-1-yl)-6-(piperazin-1-yl)benzonitrile]
17 | 100 to 1000 | < 100 |  | Cn1cnnc1C1CCN(c2c(C#N)c(C3CC3)cc(F)c2-c2ccc(F)nc2)CC1 [Example 135, 6-cyclopropyl-4-fluoro-3-(6-fluoropyridin-3-yl)-2-(4-(4-methyl-4H-1,2,4-triazol-3-yl)piperidin-1-yl)benzonitrile]
18 | < 100 | < 100 |  | Cc1cc(-c2c(F)ccc(C#N)c2N2CCC(c3nncn3C)CC2)cnc1F [Example 53, 4-fluoro-3-(6-fluoro-5-methylpyridin-3-yl)-2-(4-(4-methyl-4H-1,2,4-triazol-3-yl)piperidin-1-yl)benzonitrile]
19 | 100 to 1000 | < 100 |  | Cn1cnnc1C1CCN(c2c(C#N)cccc2-c2ccc(B(O)O)cc2)CC1 [Example 111, (3′-cyano-2′-(4-(4-methyl-4H-1,2,4-triazol-3-yl)piperidin-1-yl)-[1,1′-biphenyl]-4-yl)boronic acid]
20 | < 100 | < 100 |  | Cn1cnnc1N1CCN(c2c(C#N)ccnc2-c2ccc(F)nc2)CC1 [Example 136, 6′-fluoro-3-(4-(4-methyl-4H-1,2,4-triazol-3-yl)piperazin-1-yl)-[2,3′-bipyridine]-4-carbonitrile]
21 | 100 to 1000 | < 100 |  | Cn1cnnc1C1CCN(c2c(C#N)cccc2-c2cncc3c2OCCN3)CC1 [Example 20, 2-[4-(4-methyl-4H-1,2,4-triazol-3-yl)piperidin-1-yl]-3-{2H,3H,4H-pyrido[4,3-b][1,4]oxazin-8-yl}benzonitrile]
22 | < 100 | < 100 |  | Cn1cnnc1C1CCN(c2c(C#N)cccc2-c2cccc(B(O)O)c2)CC1 [Example 112, (3′-cyano-2′-(4-(4-methyl-4H-1,2,4-triazol-3-yl)piperidin-1-yl)-[1,1′-biphenyl]-3-yl)boronic acid]
